In patent publication US20190011433A1, “CELL CO-CULTURE SYSTEMS AND USES THEREOF” (Dana-Farber Cancer Institute, Inc., priority 2007, published 2019):
“Also recorded” adds a separate entry of the source.

What was measured:
[1] = tested on: KU812F-luc-neo target cells; test: CS-BLI killing of KU812F-luc-neo target cells by IL-2 stimulated PBMCs; format: cell-based; conditions: for effect of concurrent drug exposure of co-culture on activity of PBMCs to kill tumor targets: 2 μM CC5013, 2 μM CC4047, 20 nM PS-341 or 100 nM Dex during co-culture; for effect of drug pretreatment of PBMCs on activity of PBMCs to kill tumor targets: PBMCs pretreated 24 hrs with IL-2 plus 1 μM CC5013, 1 μM CC4047, 10 nM PS-341 or 50 nM Dexamethasone, washed
Protocol: (§1) PBMCs were isolated from a healthy donor, stimulated for 24 hrs with 10 ng/mL of IL-2 and then combined in culture with 5000 tumor target cells. The human multiple myeloma line, MM.1S-GFP-luc (FIG. 27A), was used as target cells and combined with PBMCs at 1:1, 1:5, 1:10, 1:20 and 1:40 ratios. The basophilic leukemia line, KU812F-luc-neo (FIG. 27B), was used as target cells and combined with PBMCs from the same donor at 1:1, 1:5, 1:10, 1:20 and 1:40 ratios. Viability of tumor cells was assessed using bioluminescence detection after the addition of luciferin substrate following 4 hours of co-culture with immune effector cells.
PBMCs were isolated from a healthy donor, stimulated for 24 hrs with IL-2 with either 1 μM CC5013 (FIG. 30A), 1 μM CC4047 (FIG. 30B), 10 nM PS-341 (FIG. 30C), or 50 nM Dexamethasone (FIG. 30D). PBMCs were washed and combined in culture with KU812F-luc-neo target cells at the 1:1, 1:2.5, 1:5, 1:10, 1:20 and 1:40 target to effector ratios.
PBMCs were isolated from a healthy donor, stimulated for 24 hrs with IL-2. PBMCs were then washed and combined in culture with KU812F-luc-neo target cells at the 1:1, 1:2.5, 1:5, 1:10, 1:20 and 1:40 target to effector ratios in the presence or absence 2 μM CC5013 (FIG. 33A), 2 μM CC4047 (FIG. 33B), 20 nM PS-341 (FIG. 33C), or 100 nM Dex (FIG. 33D).

[2] = tested on: MM.1S-GFP-luc target cells; test: CS-BLI killing of MM.1S-GFP-luc target cells by IL-2 stimulated PBMCs; format: cell-based, human; conditions: for effect of concurrent drug exposure of co-culture on activity of PBMCs to kill tumor targets: 2 μM CC5013, 2 μM CC4047, 20 nM PS-341 or 100 nM Dex during co-culture; for effect of concurrent drug exposure of co-culture on activity of PBMCs to kill tumor targets / effect of drug pretreatment of PBMCs on activity of PBMCs to kill tumor targets: MM.1S-GFP-luc targets; for effect of drug pretreatment of PBMCs on activity of PBMCs to kill tumor targets: PBMCs pretreated 24 hrs with IL-2 plus 1 μM CC5013, 1 μM CC4047, 10 nM PS-341 or 50 nM Dexamethasone, washed
Protocol: as §1
PBMCs were isolated from a healthy donor, stimulated for 24 hrs with IL-2 in the presence of either 1 μM CC5013 (FIG. 29A), 1 μM CC4047 (FIG. 29B), 10 nM PS-341 (FIG. 29C), or 50 nM Dexamethasone (FIG. 29D). PBMCs were washed and combined in culture with MM.1S-GFP-luc target cells at the 1:1, 1:2.5, 1:5, 1:10, 1:20 and 1:40 target to effector ratios.
PBMCs were isolated from a healthy donor, stimulated for 24 hrs with IL-2 in the presence or absence of 1 μM CC4047. MM.1S-GFP-luc cells were cultured in the presence or absence of 1 μM CC4047. PBMCs and MM.1S-GFP-luc cells were washed to remove drug and combined in culture with target MM.1S-GFP-luc target cells, either pretreated with 1 μM CC4047 or without, and combined at 1:1, 1:2.5, 1:5, 1:10, 1:20 and 1:40 target to effector ratios in the absence of drug.
PBMCs were isolated from a healthy donor, stimulated for 24 hrs with IL-2. PBMCs were combined in culture with MM.1S-GFP-luc target cells at the 1:1, 1:2.5, 1:5, 1:10, 1:20 and 1:40 target to effector ratios in the presence or absence of 2 μM CC5013 (FIG. 32A), 2 μM CC4047 (FIG. 32B), 20 nM PS-341 (FIG. 32C), or 100 nM Dex (FIG. 32D) during co-culture.

MM = conditions: cited from earlier work
[3] = tested on: Multiple myeloma (MM) cells; conditions: cited from earlier work
[4] = tested on: KU812F-luc leukemia cells; test: CS-BLI drug sensitivity of KU812F-luc leukemia cells in presence vs absence of HS-5 BMSCs; format: cell-based; conditions: presence vs absence of HS-5 BMSCs (10,000 per well)
From the text: In another set of experiments, Applicants tested and observed similar protective/sensitization effect of stroma cell on KU812F-luc cells on various drugs (data not shown).
(§2) Applicants expanded the application of in vitro compartment-specific bioluminescence imaging assays beyond the MM cells to other tumor models, namely a few leukemic cell lines. Applicants specifically tested luciferase-expressing K562-luc-neo and KU812F-luc-neo leukemic cells against standard anti-leukemia agents, including AraC and Doxo, in the presence vs. absence of HS-5 stromal cells (FIG. 7A and FIG. 7B).

K562-luc leukemia cells = test: CS-BLI drug sensitivity of K562-luc leukemia cells in presence vs absence of HS-5 BMSCs; format: cell-based; conditions: presence vs absence of HS-5 BMSCs (10,000 per well)
From the text: as §2

[5] = tested on: MM-1R-GFP-luc myeloma cells; test: CS-BLI drug sensitivity of MM-1R-GFP-luc cells in presence vs absence of stromal cells; conditions: MM-1R-GFP-luc (Dex-resistant), presence vs absence of HS-5 BMSCs (10,000 per well)
[6] = tested on: MM-1S-GFP-luc myeloma cells; test: CS-BLI drug sensitivity of MM-1S-GFP-luc cells in presence vs absence of stromal cells; format: cell-based, human; conditions: presence vs absence of HS-5 BMSCs (10,000 per well)
Protocol: Luciferin (7.5 mg/mL; Xenogen Corp, Alameda, Calif.) was added at the volume stated in each experiment. Cell viability and the precise cell counts were established by Trypan blue exclusion assay immediately before plating of the cells. Compartment-specific bioluminescence emitted by individual wells of these plates was measured with two different bioluminescence imaging modalities, namely a Xenogen IVIS® Imaging System (FIG. 1A and FIG. 1B) and a standard luminometer plate reader—Luminoskan luminometer (Labsystems, MA) (FIG. 1C). The results with each method were analyzed for the linearity of the bioluminescent signal vs. cell number using the Living Image® software (Xenogen Corp, Alameda Calif.).

A375-luc-neo cells = test: CS-BLI drug sensitivity of A375-luc-neo cells alone or with HS-5 BMSCs; format: cell-based; conditions: A375-luc-neo alone or with HS-5 BMSCs (10,000/well), 48 hrs
Protocol: (§3) MDA-MB-231met-luc-neo (FIG. 18A, FIG. 18B), A375-luc-neo (FIG. 18C, FIG. 18D) and FRO-luc-neo (FIG. 18E, FIG. 18F) cells were plated either alone or mixed with HS-5 BMSCs (10,000 /well) and treated the following day. The cultures of tumor cells and their co-cultures with BMSCs were incubated for an additional 48 hrs.

[7] = tested on: MDA-MB-231met-luc-neo cells; test: CS-BLI drug sensitivity of MDA-MB-231met-luc-neo cells alone or with HS-5 BMSCs; format: cell-based; conditions: MDA-MB-231met-luc-neo alone or with HS-5 BMSCs (10,000/well), 48 hrs
Protocol: as §3

FRO-luc-neo cells = test: CS-BLI drug sensitivity of FRO-luc-neo cells alone or with HS-5 BMSCs; format: cell-based; conditions: FRO-luc-neo alone or with HS-5 BMSCs (10,000/well), 48 hrs
Protocol: as §3

Structure (SMILES) | effect of concurrent drug exposure of co-culture on activity of PBMCs to kill tumor targets [1] | effect of drug pretreatment of PBMCs on activity of PBMCs to kill tumor targets [1] | effect of concurrent drug exposure of co-culture on activity of PBMCs to kill tumor targets [2] | effect of drug pretreatment of PBMCs on activity of PBMCs to kill tumor targets [2] | effect of BMSC co-culture on tumor cell response to drug (protection) [4] | effect of BMSC co-culture on tumor cell response to drug (protection) (K562-luc leukemia cells) | further results
Nc1cccc2c1CN(C1CCC(=O)NC1=O)C2=O (stereo not shown) [CC5013] | significant difference increasing the activity | did not have a significant impact | had an increase in the activity | did not have a significant impact |  |  | 
Nc1cccc2c1CN(C1CCC(=O)NC1=O)C2=O (stereo not shown) [lenalidomide] |  |  |  |  |  |  | anti-MM activity in vivo (MM): potent; single-agent in vitro anti-MM activity [3]: modest
Nc1cccc2c1C(=O)N(C1CCC(=O)NC1=O)C2=O (stereo not shown) [CC4047] | significant difference increasing the activity | did have a significant impact on increasing | increased activity | did not have a significant impact; also recorded: no significant increasing in activity |  |  | effect of drug pretreatment of target myeloma cells on killing by PBMCs ([2]; MM.1S-GFP-luc cells pretreated with 1 μM CC4047, washed): significant increase
Cc1ccc(NC(=O)c2ccc(CN3CCN(C)CC3)cc2)cc1Nc1nccc(-c2cccnc2)n1 [Imatinib, imatinib] |  |  |  |  | confer protection | do not confer protection | effect of BMSC co-culture on tumor cell response to drug (protection) ([4]; listed as imatinib): develop stromal-derived resistance; also recorded: decreased the responsiveness; effect of BMSC co-culture on tumor cell response to drug (protection) (K562-luc leukemia cells; listed as imatinib): do not exhibit such phenotype
CC(C)C[C@H](NC(=O)[C@H](Cc1ccccc1)NC(=O)c1cnccn1)B(O)O [PS-341, bortezomib] | significant difference blocking the activity | did have a significant impact on blocking | decreased activity | did have a significant impact on blocking |  |  | effect of BMSC co-culture on tumor cell response to drug (protection) [5]: confer no protection; effect of BMSC co-culture on tumor cell response to drug (protection) ([5]; listed as bortezomib): did not abrogate the responsiveness; effect of BMSC co-culture on tumor cell response to drug (protection) ([6]; listed as bortezomib): did not abrogate the responsiveness
Cc1cn(-c2cc(NC(=O)c3ccc(C)c(Nc4nccc(-c5cccnc5)n4)c3)cc(C(F)(F)F)c2)cn1 [nilotinib] |  |  |  |  | confer protection | do not confer protection | 
O=C1CCC(N2C(=O)c3ccccc3C2=O)C(=O)N1 (stereo not shown) [thalidomide] |  |  |  |  |  |  | anti-MM activity in vivo (MM): potent; single-agent in vitro anti-MM activity [3]: modest
Nc1ccn([C@@H]2O[C@H](CO)[C@@H](O)[C@@H]2O)c(=O)n1 [AraC] |  |  |  |  | decreased the responsiveness; also recorded: confer protection | protection was observed | effect of BMSC co-culture on tumor cell response to drug (protection) ([4]; listed as Ara-C): develop stromal-derived resistance; effect of BMSC co-culture on tumor cell response to drug (protection) (A375-luc-neo cells): considerable level of protection; effect of BMSC co-culture on tumor cell response to drug (protection) [7]: modest protection; effect of BMSC co-culture on tumor cell response to drug (protection) (FRO-luc-neo cells): no protection
CC1=C2C(=O)[C@H]3[C@@H](CC=C4C[C@@H](O)CC[C@@]43C)[C@@H]2CC[C@]12O[C@@H]1C[C@H](C)CN[C@H]1[C@H]2C [11-keto-cyclopamine] |  |  |  |  |  |  | effect of BMSC co-culture on tumor cell response to drug (protection) [5]: conferred protection; effect of BMSC co-culture on tumor cell response to drug (protection) [6]: conferred protection
